PMC9027910, “Synthesis and Antimycobacterial Evaluation of N-(4-(Benzyloxy)benzyl)-4-aminoquinolines” (Molecules, 2022)

Key:
[1] = tested on: M. tuberculosis H37Rv; assay: Minimum inhibitory concentration (resazurin microplate); type: cell-based, Mycobacterium tuberculosis; details: for MIC: Mycobacterium tuberculosis, M. tuberculosis H37Rv, 7 days + 48 h resazurin, highest value of three assays; for Activity against M. tuberculosis H37Rv in words: at the highest concentrations evaluated

| SMILES | MIC [1] [µM] | Activity against M. tuberculosis H37Rv in words [1] | melting point [°C] | Fold reduction of activity versus 9n and 9o ([1]; MIC of unsubstituted benzyloxy compound versus 4-halogenated 9n, 9o) | Fold higher MIC than 9n ([1]; MIC ratio versus methylated analogue 9n) [fold] |
| --- | --- | --- | --- | --- | --- |
| Cc1cc(NCc2ccc(OCc3ccccc3)cc2)c2ccccc2n1 [Compound 9a, N-(4-(benzyloxy)benzyl)-2-methylquinolin-4-amine] | > 7 | inactive | 134 to 136 |  |  |
| CCc1cc(NCc2ccc(OCc3ccccc3)cc2)c2cc(OC)ccc2n1 [Compound 9aa, N-(4-(benzyloxy)benzyl)-2-ethyl-6-methoxyquinolin-4-amine] | 12.5 |  | 118 to 120 |  |  |
| Cc1cc(NCc2ccc(OCc3ccc(Cl)cc3)cc2)c2ccccc2n1 [Compound 9b, N-(4-((4-chlorobenzyl)oxy)benzyl)-2-methylquinolin-4-amine] | > 12.9 | inactive | 111 to 113 |  |  |
| Cc1cc(NCc2ccc(OCc3ccc(F)cc3)cc2)c2ccccc2n1 [Compound 9c, N-(4-((4-fluorobenzyl)oxy)benzyl)-2-methylquinolin-4-amine] | 26.8 |  | 134 to 136 |  |  |
| Cc1cc(NCc2ccc(OCc3ccc(F)c(F)c3)cc2)c2ccccc2n1 [Compound 9d, N-(4-((3,4-difluorobenzyl)oxy)benzyl)-2-methylquinolin-4-amine] | 25.6 |  | 199 to 201 |  |  |
| Cc1cc(NCc2ccc(OCc3ccc(C(C)C)cc3)cc2)c2ccccc2n1 [Compound 9e, N-(4-((4-isopropylbenzyl)oxy)benzyl)-2-methylquinolin-4-amine] | 27 |  | 95 to 97 |  |  |
| COc1cc(COc2ccc(CNc3cc(C)nc4ccccc34)cc2)cc(OC)c1 [Compound 9f, N-(4-((3,5-dimethoxybenzyl)oxy)benzyl)-2-methylquinolin-4-amine] | 12.1 |  | 134 to 136 |  |  |
| Cc1cc(NCc2ccc(OCc3ccccc3)cc2)c2cc(Cl)ccc2n1 [Compound 9g, N-(4-(benzyloxy)benzyl)-6-chloro-2-methylquinolin-4-amine] | 6.4 |  | 165 to 167 |  |  |
| Cc1cc(NCc2ccc(OCc3ccc(Cl)cc3)cc2)c2cc(Cl)ccc2n1 [Compound 9h, N-(4-((4-chlorobenzyl)oxy)benzyl) 6-chloro-2-methylquinolin-4-amine] | 5.9 |  | 177 to 179 |  |  |
| Cc1cc(NCc2ccc(OCc3ccc(F)cc3)cc2)c2cc(Cl)ccc2n1 [Compound 9i, N-(4-((4-fluorobenzyl)oxy)benzyl) 6-chloro-2-methylquinolin-4-amine] | 6.1 |  | 170 to 172 |  |  |
| Cc1cc(NCc2ccc(OCc3ccc(F)c(F)c3)cc2)c2cc(Cl)ccc2n1 [Compound 9j, N-(4-((3,4-difluorobenzyl)oxy)benzyl)-6-chloro-2-methylquinolin-4-amine] | 5.9 |  | 137 to 139 |  |  |
| Cc1cc(NCc2ccc(OCc3ccc(C(C)C)cc3)cc2)c2cc(Cl)ccc2n1 [Compound 9k, N-(4-((4-isopropylbenzyl)oxy)benzyl)-6-chloro-2-methylquinolin-4-amine] | 5.8 |  | 126 to 128 |  |  |
| COc1cc(COc2ccc(CNc3cc(C)nc4ccc(Cl)cc34)cc2)cc(OC)c1 [Compound 9l, N-(4-((3,5-dimethoxybenzyl)oxy)benzyl)-6-chloro-2-methylquinolin-4-amine] | 5.7 |  | 147 to 149 |  |  |
| Cc1cc(NCc2ccc(OCc3ccccc3)cc2)c2cc(Br)ccc2n1 [Compound 9m, N-(4-(benzyloxy)benzyl)-6-bromo-2-methylquinolin-4-amine] | 5.8 |  | 164 to 166 | more than 2 fold |  |
| Cc1cc(NCc2ccc(OCc3ccc(F)c(F)c3)cc2)c2cc(Br)ccc2n1 [Compound 9p, N-(4-((3,4-difluorobenzyl)oxy)benzyl) 6-bromo-2-methylquinolin-4-amine] | 5.3 |  | 142 to 144 |  |  |
| Cc1cc(NCc2ccc(OCc3ccc(C(C)C)cc3)cc2)c2cc(Br)ccc2n1 [Compound 9q, N-(4-((4-isopropylbenzyl)oxy)benzyl) 6-bromo-2-methylquinolin-4-amine] | 5.3 |  | 135 to 137 |  |  |
| COc1cc(COc2ccc(CNc3cc(C)nc4ccc(Br)cc34)cc2)cc(OC)c1 [Compound 9r, N-(4-((3,5-dimethoxybenzyl)oxy)benzyl)-6-bromo-2-methylquinolin-4-amine] | 5.1 |  | 151 to 153 |  |  |
| CCc1cc(NCc2ccc(OCc3ccccc3)cc2)c2cc(Br)ccc2n1 [Compound 9s, N-(4-(benzyloxy)benzyl)-6-bromo-2-ethylquinolin-4-amine] | 5.6 |  | 136 to 138 |  |  |
| CCc1cc(NCc2ccc(OCc3ccc(Cl)cc3)cc2)c2cc(Br)ccc2n1 [Compound 9t, N-(4-((4-chlorobenzyl)oxy)benzyl)-6-bromo-2-ethylquinolin-4-amine] | 5.2 |  | 122 to 124 |  | 1.9 |
| COc1ccc2nc(C)cc(NCc3ccc(OCc4ccccc4)cc3)c2c1 [Compound 9u, N-(4-(benzyloxy)benzyl)-6-methoxy-2-methylquinolin-4-amine] | 13 |  | 96 to 98 |  |  |
| COc1ccc2nc(C)cc(NCc3ccc(OCc4ccc(Cl)cc4)cc3)c2c1 [Compound 9v, N-(4-((4-chlorobenzyl)oxy)benzyl)-6-methoxy-2-methylquinolin-4-amine] | 11.9 |  | 259 to 261 |  |  |
| COc1ccc2nc(C)cc(NCc3ccc(OCc4ccc(C(C)C)cc4)cc3)c2c1 [Compound 9w, N-(4-((4-isopropylbenzyl)oxy)benzyl)-6-methoxy-2-methylquinolin-4-amine] | 23.4 |  | 133 to 135 |  |  |
| COc1ccc2nc(C)cc(NCc3ccc(OCc4ccc(F)cc4)cc3)c2c1 [Compound 9x, N-(4-((4-fluorobenzyl)oxy)benzyl)-6-methoxy-2-methylquinolin-4-amine] | 12.4 |  | 141 to 143 |  |  |
| COc1ccc2nc(C)cc(NCc3ccc(OCc4ccc(F)c(F)c4)cc3)c2c1 [Compound 9y, N-(4-((3,4-difluorobenzyl)oxy)benzyl)-6-methoxy-2-methylquinolin-4-amine] | 5.9 |  | 104 to 106 |  |  |
| COc1cc(COc2ccc(CNc3cc(C)nc4ccc(OC)cc34)cc2)cc(OC)c1 [Compound 9z, N-(4-((3,5-dimethoxybenzyl)oxy)benzyl)-6-methoxy-2-methylquinolin-4-amine] | 11.2 |  | 164 to 166 |  |  |
| NNC(=O)c1ccncc1 [INH, isoniazid, reference compound] | 2.3 |  |  |  |  |
